Data as given in ChEMBL document CHEMBL1201862, “PubChem BioAssay data set” (2004).
Calls of active or inactive are those of the source.

Key:
Cytochrome P450 3A4 = Cytochrome P450 3A4 (Homo sapiens, UniProt P08684);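 further: CYP3A4 tested as one member of a cytochrome P450 panel screen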
fMet-Leu-Phe receptor = fMet-Leu-Phe receptor (Homo sapiens, UniProt P21462); experiment: FPR ligands, dose response (AID 519); format: functional
[1] = MC4R antagonists, dose response, counter-screen for LGR2 antagonist project, cell-based, plate reader, cherry pick (AID 743444); format: functional;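 further: transfected HEK 293 cells stimulated with alpha-MSH peptide; potency of inhibitors of the alpha-MSH evoked signal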
[2] = control 3'UTR Renilla luciferase suppression, dose response, counter-screen for Shn3 inhibitor project, cell-based, Clone20-Shn3RL, cherry-picked (AID 624133); format: functional
[3] = ZM109 Env clade C HIV-1 fusion inhibitors, dose response, HeLa effector, CEM target cells, luciferase, cherry-pick (AID 652058); format: functional, cell-based
Jurkat = experiment: antigen receptor-induced NF-kB inhibitors, dose response, Jurkat, luciferase reporter, luminescence, B- and T-cell (AID 489004); format: functional, cell-based; conditions: Homo sapiens;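 further: NF-kB luciferase reporter Jurkat cells stimulated with PMA plus ionomycin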
[4] = LGR2 antagonists, dose response, cell-based, HEK293, CRE-luciferase reporter, cherry pick, set 2 (AID 743343); format: functional;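 further: transfected cells were stimulated with diluted bursicon conditioned medium after compound addition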
[5] = HEK293 cell cytotoxicity, dose response, cytotoxicity control, plate reader, cherry-picked samples (AID 743446); format: functional, cell-based
Melanocortin receptor 4 = Melanocortin receptor 4 (Homo sapiens, UniProt P32245); experiment: MC4R antagonist potency on cAMP, dose response, cell-based, TR-FRET, biased antagonists (AID 602298); format: functional;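 further: antagonist potency against agonist-stimulated cAMP production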
Sequence of Melanocortin receptor 4 (P32245 whole entry): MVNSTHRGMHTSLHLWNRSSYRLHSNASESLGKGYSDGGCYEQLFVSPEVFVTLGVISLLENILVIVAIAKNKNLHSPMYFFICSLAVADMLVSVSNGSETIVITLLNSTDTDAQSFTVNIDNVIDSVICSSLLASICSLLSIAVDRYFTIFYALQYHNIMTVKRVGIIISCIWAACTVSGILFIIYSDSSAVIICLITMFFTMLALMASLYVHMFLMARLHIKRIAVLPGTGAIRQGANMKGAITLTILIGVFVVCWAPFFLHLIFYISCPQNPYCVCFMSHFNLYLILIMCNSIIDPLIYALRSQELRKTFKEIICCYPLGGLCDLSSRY

[6] = cytotoxicity in HEK-293T NF-kB-Luc cells, dose response, cytotoxicity control for B/T-cell NF-kB inhibitor project, cell-based, uHTS hits (AID 489019); format: functional;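 further: IC50 reflects cytotoxicity as loss of cell viability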
[7] = HepG2 cell cytotoxicity, dose response, cytotoxicity control for Shn3 inhibitor project, CellTiter-Glo, cherry-picked (AID 624134); format: functional, cell-based
[8] = A549 cell cytotoxicity, dose response, cytotoxicity control, plate reader, cherry-pick, antagonist series (AID 743412); format: functional, cell-based
[9] = inhibitors of PGC1a acetylation in cells, dose response, cell-based, cherry-picked samples (AID 720514); format: functional;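 further: potency may reflect raised or lowered acetylation signal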
[10] = HepG2 cell cytotoxicity, dose response, cytotoxicity control, plate reader, cherry-pick, antagonist series (AID 743416); format: functional, cell-based
[11] = Shn3 3'UTR reporter inhibitors, dose response, cell-based, Clone20 osteoblasts, firefly luciferase, cherry-picked (AID 624132); format: functional;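 further: firefly luciferase luminescence from reporter carrying the Shn3 3'UTR in osteoblasts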
[12] = nonselective inhibitors of cellular cAMP signaling, dose response, counter-screen for MC4R biased antagonist project, cell-based, TR-FRET cAMP detection (AID 602305); format: functional;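 further: U2OS cells stimulated with forskolin near its EC80 as the cAMP inducer; potency is for inhibition of forskolin-stimulated cAMP signaling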
[13] = inhibitors of clade B AD8 Env fusion, dose response, cell-based, cherry-pick (AID 652062); format: functional;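 further: luciferase signal from cell-cell fusion driven by HIV-1 clade B AD8 Env; potency is for inhibitors of fusion seen as a drop in luminescence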
[14] = off-target signal loss in HeLa-CEM21 co-culture – HeLa F-luc CTL cells, cherry-picked, counter-screen for HIV-1 Env fusion inhibitor project, dose response (AID 652040); format: functional, cell-based;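 further: potency for signal decrease marking cytotoxic or nonspecific inhibition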
[15] = inhibitors of HIV Env-driven cell fusion, dose response, cherry-pick (AID 652057); format: functional, cell-based
[16] = CEM21 lymphoblast cell cytotoxicity, dose response, cytotoxicity control for viral fusion inhibitor project, CellTiter-Glo luminescence, cherry-picked (AID 652042); format: functional, cell-based;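 further: potency for signal decrease meaning cytotoxicity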
[17] = target: T1, Microphthalmia-associated transcription factor (Homo sapiens, UniProt O75030); experiment: TRPM1 promoter luciferase signal decrease, dose response, MITF inhibitor project, cell-based, SK-MEL-5, cherry-picked, set 3 (AID 493073); format: functional
T1 sequence (O75030 whole entry): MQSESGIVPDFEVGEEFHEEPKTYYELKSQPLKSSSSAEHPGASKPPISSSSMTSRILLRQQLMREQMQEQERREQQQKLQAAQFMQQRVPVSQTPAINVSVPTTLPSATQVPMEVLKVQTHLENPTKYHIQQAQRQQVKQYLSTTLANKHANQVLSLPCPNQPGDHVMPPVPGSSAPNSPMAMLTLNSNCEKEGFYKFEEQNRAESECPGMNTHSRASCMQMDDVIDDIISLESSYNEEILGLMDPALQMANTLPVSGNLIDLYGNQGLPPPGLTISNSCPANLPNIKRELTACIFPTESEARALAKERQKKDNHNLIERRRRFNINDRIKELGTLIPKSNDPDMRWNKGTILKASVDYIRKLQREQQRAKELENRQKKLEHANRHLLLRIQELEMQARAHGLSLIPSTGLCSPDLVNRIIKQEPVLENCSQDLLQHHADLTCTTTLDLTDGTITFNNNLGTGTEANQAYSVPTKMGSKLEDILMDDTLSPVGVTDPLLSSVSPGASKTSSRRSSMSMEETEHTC

[18] = non-specific cell cytotoxicity, dose response, cytotoxicity control for PAX8 inhibitor project, plate reader, dry powder samples (AID 743021); format: functional, cell-based
Paired box protein Pax-8 = Paired box protein Pax-8 (Homo sapiens, UniProt Q06710); experiment: inhibitors of PAX8-driven TPO luciferase reporter, dose response, RMG-I cells, cherry-pick (AID 687027); format: functional, cell-based;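 further: luciferase reporter driven by Pax8 target thyroperoxidase promoter measured by SteadyGlo luminescence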
Sequence of Paired box protein Pax-8 (Q06710 whole entry): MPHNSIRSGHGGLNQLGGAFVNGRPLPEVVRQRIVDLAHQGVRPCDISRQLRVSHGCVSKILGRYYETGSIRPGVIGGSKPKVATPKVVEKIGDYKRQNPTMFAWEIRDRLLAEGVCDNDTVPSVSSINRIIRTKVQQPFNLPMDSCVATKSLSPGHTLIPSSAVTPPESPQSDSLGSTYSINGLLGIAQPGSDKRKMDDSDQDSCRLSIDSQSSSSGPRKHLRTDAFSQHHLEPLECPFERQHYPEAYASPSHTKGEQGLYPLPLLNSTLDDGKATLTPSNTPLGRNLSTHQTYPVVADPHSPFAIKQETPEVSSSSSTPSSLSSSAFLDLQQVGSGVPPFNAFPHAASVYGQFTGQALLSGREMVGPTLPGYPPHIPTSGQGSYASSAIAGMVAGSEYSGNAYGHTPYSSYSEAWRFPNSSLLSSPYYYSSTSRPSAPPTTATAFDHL

cells = format: functional, cell-based; conditions: HEK-CNG
[19] = cytotoxicity in HEK-293T cells, dose response, cytotoxicity control for TCR NF-kB inhibitor project, luminescence, T-cell screen hits (AID 489026); format: functional, cell-based;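 further: cells exposed to compound about 14 hours before the viability readout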
[20] = target: Heat shock protein HSP 90-alpha (Homo sapiens, UniProt P07900); format: functional, organism-based
[21] = NIH-3T3 fibroblast cytotoxicity, dose response, cytotoxicity control, cell-based, fluorescence, Alamar Blue, secondary assay (AID 2327); format: functional;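 further: NIH-3T3 mouse fibroblasts cultured with fluconazole at 8 µg/mL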
[22] = C. albicans growth with fluconazole, confirmation, fluorescence, retest (AID 2467); format: functional, cell-based
Galanin receptor type 3 = Galanin receptor type 3 (Homo sapiens, UniProt O60755); experiment: Fluorescence-based cell-based primary high throughput dose response assay to identify antagonists of the Galanin Receptor 3 (GalR3).; format: functional
Sequence of Galanin receptor type 3 (O60755 whole entry): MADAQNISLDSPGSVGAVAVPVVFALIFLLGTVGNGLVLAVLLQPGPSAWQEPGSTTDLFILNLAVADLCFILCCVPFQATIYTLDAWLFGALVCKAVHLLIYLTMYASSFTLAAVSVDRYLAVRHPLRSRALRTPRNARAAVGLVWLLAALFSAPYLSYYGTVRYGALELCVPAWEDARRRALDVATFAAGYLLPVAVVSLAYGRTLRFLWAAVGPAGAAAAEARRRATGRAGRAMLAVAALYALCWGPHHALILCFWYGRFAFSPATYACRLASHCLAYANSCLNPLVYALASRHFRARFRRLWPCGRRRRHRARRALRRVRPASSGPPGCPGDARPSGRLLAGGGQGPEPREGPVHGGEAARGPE

[23] = reduction of Shn3 3'UTR firefly luciferase signal, dose response, Schnurri-3 inhibitor project, cell-based, Clone20 osteoblasts, cherry-pick, set 2 (AID 720490); format: functional;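 further: actives lower the luminescence signal as inhibitors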
Caspase-6 = Caspase-6 (Homo sapiens, UniProt P55212); experiment: human caspase-6 inhibitors, dose response, biochemical, VEID-R110 fluorescence, cherry-pick (AID 720632)
Sequence of Caspase-6 (P55212 24-179 limits assumed): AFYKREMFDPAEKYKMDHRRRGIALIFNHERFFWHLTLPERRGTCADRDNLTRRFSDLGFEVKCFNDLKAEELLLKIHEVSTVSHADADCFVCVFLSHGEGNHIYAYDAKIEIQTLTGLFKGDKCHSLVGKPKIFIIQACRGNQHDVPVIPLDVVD
Sequence of Caspase-6 (P55212 194-293 limits assumed): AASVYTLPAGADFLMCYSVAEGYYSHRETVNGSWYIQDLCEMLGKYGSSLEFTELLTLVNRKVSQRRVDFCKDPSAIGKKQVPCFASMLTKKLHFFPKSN

[24] = target: T2, Histone-lysine N-methyltransferase NSD2 (Homo sapiens, UniProt O96028); format: biochemical
T2 sequence (O96028 whole entry): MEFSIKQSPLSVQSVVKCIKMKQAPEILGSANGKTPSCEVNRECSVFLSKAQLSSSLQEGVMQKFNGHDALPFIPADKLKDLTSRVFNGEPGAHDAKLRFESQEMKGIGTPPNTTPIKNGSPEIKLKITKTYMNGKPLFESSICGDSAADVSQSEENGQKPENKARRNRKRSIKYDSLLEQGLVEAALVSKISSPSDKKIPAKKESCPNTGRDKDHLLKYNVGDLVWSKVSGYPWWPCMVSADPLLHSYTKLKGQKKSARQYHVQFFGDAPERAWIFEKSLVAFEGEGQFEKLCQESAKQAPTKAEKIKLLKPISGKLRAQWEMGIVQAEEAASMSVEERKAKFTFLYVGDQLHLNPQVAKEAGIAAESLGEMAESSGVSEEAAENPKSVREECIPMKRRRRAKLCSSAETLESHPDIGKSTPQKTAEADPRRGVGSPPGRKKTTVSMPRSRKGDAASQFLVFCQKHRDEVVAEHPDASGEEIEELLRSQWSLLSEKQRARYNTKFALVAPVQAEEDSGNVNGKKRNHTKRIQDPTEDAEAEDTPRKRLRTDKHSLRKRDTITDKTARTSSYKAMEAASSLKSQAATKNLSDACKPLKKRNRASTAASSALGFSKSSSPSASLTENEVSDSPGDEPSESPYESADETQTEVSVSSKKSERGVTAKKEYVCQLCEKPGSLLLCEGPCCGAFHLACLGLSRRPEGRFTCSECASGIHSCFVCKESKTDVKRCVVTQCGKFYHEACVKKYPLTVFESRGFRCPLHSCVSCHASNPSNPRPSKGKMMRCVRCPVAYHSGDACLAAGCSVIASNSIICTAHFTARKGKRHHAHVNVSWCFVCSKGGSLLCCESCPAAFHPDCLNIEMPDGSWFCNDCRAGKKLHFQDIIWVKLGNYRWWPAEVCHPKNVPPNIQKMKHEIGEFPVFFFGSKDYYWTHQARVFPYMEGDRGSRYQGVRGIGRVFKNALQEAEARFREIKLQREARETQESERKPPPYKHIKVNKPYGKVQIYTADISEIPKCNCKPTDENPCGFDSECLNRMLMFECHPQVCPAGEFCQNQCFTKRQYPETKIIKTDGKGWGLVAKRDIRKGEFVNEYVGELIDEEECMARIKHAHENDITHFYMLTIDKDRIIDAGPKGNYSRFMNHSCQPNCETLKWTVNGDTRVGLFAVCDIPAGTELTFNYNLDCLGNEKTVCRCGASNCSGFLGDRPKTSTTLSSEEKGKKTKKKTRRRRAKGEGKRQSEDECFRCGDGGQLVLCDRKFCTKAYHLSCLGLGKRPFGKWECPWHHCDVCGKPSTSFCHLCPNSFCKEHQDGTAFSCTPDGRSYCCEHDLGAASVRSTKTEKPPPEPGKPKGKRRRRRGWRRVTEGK

[25] = target: T3, High affinity choline transporter 1 (Homo sapiens, UniProt Q9GZV3); experiment: CHT inhibitors, dose response, cell-based, 5-point CRC, membrane potential dye (AID 504840); format: functional
T3 sequence (Q9GZV3 whole entry): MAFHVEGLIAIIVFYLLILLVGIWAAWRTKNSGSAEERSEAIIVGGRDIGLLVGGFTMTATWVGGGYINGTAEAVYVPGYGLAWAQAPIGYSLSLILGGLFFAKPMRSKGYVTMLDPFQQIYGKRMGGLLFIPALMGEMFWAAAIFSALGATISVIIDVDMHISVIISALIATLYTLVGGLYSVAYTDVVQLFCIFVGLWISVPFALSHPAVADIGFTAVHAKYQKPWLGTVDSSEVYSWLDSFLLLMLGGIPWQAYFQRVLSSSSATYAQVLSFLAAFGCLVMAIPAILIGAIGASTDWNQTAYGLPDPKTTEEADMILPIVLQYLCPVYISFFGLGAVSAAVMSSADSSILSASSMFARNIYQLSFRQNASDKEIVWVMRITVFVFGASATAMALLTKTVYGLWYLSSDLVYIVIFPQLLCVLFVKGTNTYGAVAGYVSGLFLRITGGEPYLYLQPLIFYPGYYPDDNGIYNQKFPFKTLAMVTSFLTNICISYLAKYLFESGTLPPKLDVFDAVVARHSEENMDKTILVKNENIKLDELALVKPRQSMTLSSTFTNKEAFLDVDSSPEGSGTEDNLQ

Sequence of fMet-Leu-Phe receptor (P21462 whole entry): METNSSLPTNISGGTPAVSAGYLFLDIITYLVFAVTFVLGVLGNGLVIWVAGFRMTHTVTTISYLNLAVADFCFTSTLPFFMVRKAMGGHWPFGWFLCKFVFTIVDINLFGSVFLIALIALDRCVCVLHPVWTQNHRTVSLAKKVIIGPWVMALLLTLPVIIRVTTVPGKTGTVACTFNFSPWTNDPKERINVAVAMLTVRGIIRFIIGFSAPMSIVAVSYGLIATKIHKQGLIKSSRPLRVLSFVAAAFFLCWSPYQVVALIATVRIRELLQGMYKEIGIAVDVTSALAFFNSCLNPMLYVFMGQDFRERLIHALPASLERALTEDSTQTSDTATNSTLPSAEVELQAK
Sequence of Cytochrome P450 3A4 (P08684 whole entry): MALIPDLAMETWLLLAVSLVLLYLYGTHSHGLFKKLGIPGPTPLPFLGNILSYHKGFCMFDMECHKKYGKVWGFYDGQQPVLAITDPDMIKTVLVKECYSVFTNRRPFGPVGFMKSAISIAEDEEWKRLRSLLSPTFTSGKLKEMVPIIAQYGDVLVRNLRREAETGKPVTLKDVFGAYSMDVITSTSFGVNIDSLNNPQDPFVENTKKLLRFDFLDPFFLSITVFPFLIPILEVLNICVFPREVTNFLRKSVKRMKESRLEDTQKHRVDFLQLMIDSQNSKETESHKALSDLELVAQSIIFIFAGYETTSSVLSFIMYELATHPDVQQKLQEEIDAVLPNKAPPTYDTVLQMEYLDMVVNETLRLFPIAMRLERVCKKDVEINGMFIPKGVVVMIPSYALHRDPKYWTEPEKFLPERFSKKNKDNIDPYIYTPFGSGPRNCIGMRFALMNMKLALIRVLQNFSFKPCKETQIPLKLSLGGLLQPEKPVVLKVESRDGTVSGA

In the case of `COc1ccc(-c2cc(C(F)(F)F)nc(N3CCCCC3)n2)cc1OC`, the AC50 (Cytochrome P450 3A4) is reported as 25.1 µM (inconclusive) and the Ki (fMet-Leu-Phe receptor) is reported as > 66.7 µM (inactive).
In the case of `C#CC(=O)N(c1ccc(OC)cc1OC)C(C(=O)NC1CCCC1)c1cccs1` (configuration not stated), the AC50 [1] is reported as 6.64 µM (active), the AC50 [2] is reported as 1.11 µM (active) and the AC50 [3] is reported as 14.4 µM (active). The IC50 (Jurkat) was 0.32 µM (active), the AC50 [4] was 8.43 µM (active) and the AC50 [5] was 1.87 µM (active). For the same compound, the IC50 (Melanocortin receptor 4) was > 64.6 µM (inactive), the IC50 [6] was 37.3 µM (inactive) and the AC50 [7] was 4.23 µM (active). For the same compound, the AC50 [8] was 13.4 µM (active), the AC50 [9] was 3.91 µM (active) and the AC50 [10] was 0.839 µM (active). For the same compound, the AC50 [11] was 7.12 µM (active), the IC50 [12] was > 64.6 µM (inactive) and the AC50 [13] was 9.92 µM (active). The AC50 [14] was 4.53 µM (active), the AC50 [15] was 14.8 µM (active) and the AC50 [16] was 0.631 µM (active). The AC50 [17] was 4.73 µM (active), the AC50 [18] was 0.678 µM (active) and the AC50 (Paired box protein Pax-8) was < 0.26 µM (active).
For `CC(C)CCOc1cccc(OCC(=O)Nc2ccncc2)c1`, the AC50 [2] was 2.72 µM (active), the EC50 (cells) was > 29.9 µM (inactive) and the IC50 [19] was > 80 µM (inactive). The AC50 [20] was 2.62 µM (active), the AC50 [7] was 48.5 µM (active) and the EC50 [21] was > 160 µM (inactive). The AC50 [11] was 0.571 µM (active), the EC50 [22] was 3.63 µM (active) and the IC50 (Galanin receptor type 3) was 1.06 µM (active). For the same compound, the AC50 [23] was 1.07 µM (active).
For `CC(C)C(=O)C1=Cc2cccc([N+](=O)[O-])c2OC1N1CCOCC1` (configuration not stated), the AC50 (Caspase-6) was 43.7 µM (active).
For `O=C1N/C(=N\c2ccccc2Cl)S/C1=C\c1cccc([N+](=O)[O-])c1O`, the AC50 (Caspase-6) was 11 µM (active), the AC50 [24] was 19.2 µM (active) and the IC50 [25] was 12.6 µM (active).
